Patent US20240425529A1, “BORIC ACID DERIVATIVE” (SHOUYAO HOLDINGS (BEIJING) CO., LTD., priority 2021, published 2024)
pIC50: −log10 of the molar value.

Experiments:
LMP7 [1] = target: T1, LMP7 (Homo sapiens, UniProt P28062); test: Enzymatic inhibitory activity on LMP7 (MOLT-4 cell lysate, Ac-ANW-AMC substrate); assay type: biochemical; conditions: 1 hour pre-incubation
T1 construct: using MOLT-4 cell lysate as the enzyme source of LMP7; endogenous in cells; host or cells: MOLT-4 (human acute lymphoblastic leukemia cells)
Description: LMP7 is a catalytic subunit of immunoproteasomes. In this experiment, an enzymatic detection platform was established using its hydrolytic enzyme activity and used for compound activity detection. Using Ac-ANW-AMC (Bonston Biochem, Cat #S-320) as a substrate for LMP7, the amount of fluorescent group AMC (7-amino-4-methylcoumarin) released after hydrolysis can reflect the enzymatic activity. MOLT-4 cells are human acute lymphoblastic leukemia cells and have been identified as cells with high expression of LMP7. We established an enzymatic detection method for compound inhibition on LMP7 using MOLT-4 cell lysate as the enzyme source of LMP7 and detected the compound inhibitory activity (half inhibitory concentration, IC50).
(§1) MOLT-4 cells were cultured in a 75 cm^2 cell culture flask (Corning) (37° C., 95% air, and 5% CO2) with RPMI-1640 (Biological Industries) medium containing 10% fetal bovine serum (Biological Industries) and 1% Pen Strep (Gibco) and passaged 2-3 times one week. 1×10^7 MOLT-4 cells were collected, resuspended in 1 ml of PBS (Solarbio), and centrifuged at 3000 rpm for 5 minutes. The supernatant was aspirated off. The cells were resuspended in 500 μl of lysis buffer (20 mM Tris, pH 8.0, 5 mM EDTA, plus Protease inhibitor (1:1000) and Phosphatase Inhibitor (1:100) when used) and left on ice for 30 minutes. The cells were broken by supersonic technique, 0.5 S on, 0.5 S off, for 2.5 S. The centrifuge was performed at 12000 rpm, 4° C. for 10 minutes. The supernatant was the cell lysate and protein quantification was performed by using the BCA method (Thermo, #23225).
Compounds were diluted in a 5-fold gradient with 100% DMSO for a total of 9 concentrations: 2 W for each concentration was added to a 48-μl reaction buffer (20 mM Tris, pH 8.0, 0.5 mM EDTA) and mixed well as 4* compound (final concentrations: 2000, 400, 80, 16, 3.2, 0.64, 0.128, 0.0256, and 0 nM) for later use. A reaction buffer was used to prepare 4* MOLT-4 cell lysate at a final concentration of 20 ng/μl and 2*Ac-ANW-AMC at a final concentration of 100 µM. 5 μl of 4* compound was added to a 384-well plate (OptiPlate-384, purchased from PerkinElmer), added with 5 W of 4* cell lysate, centrifuged, and reacted in an incubator at 23° C. for 1 hour. 10 W of 2* Ac-ANW-AMC was added and the reaction was started by centrifugation at 23° C. in the dark for 2 hours. After completion of the reaction, the signal value (excitation wavelength 345 nm/emission wavelength 445 nm) was read on the CLARIO star^Plus (purchased from BMG LRBTECH). Enzyme activity was determined at 9 concentrations for each compound, and data were processed using the GraphPad Prism software to calculate the half inhibitory concentration of the compound on LMP7, i.e. the IC50 value.

β5 = target: T2, β5 (Homo sapiens, UniProt P28074); test: Enzymatic inhibitory activity on β5 (HEK-293 cell lysate, Ac-WLA-AMC substrate); assay type: biochemical; conditions: 1 hour pre-incubation
T2 construct: using HEK-293 cell lysate as the enzyme source of D5; endogenous in cells; host or cells: HEK-293 (human embryonic kidney cells)
Description: β5 is a catalytic subunit of immunoproteasomes. In this experiment, an enzymatic detection platform was established using its hydrolytic enzyme activity and used for compound activity detection. Using Ac-WLA-AMC (Bonston Biochem, Cat #5-330) as a substrate for D5, the amount of fluorescent group AMC (7-amino-4-methylcoumarin) released after hydrolysis can reflect the enzymatic activity. […] We established an enzymatic detection method for compound inhibition on D5 using HEK-293 cell lysate as the enzyme source of D5 and detected the compound inhibitory activity (half inhibitory concentration, IC50). The enzymatic inhibitory activity of compounds against D5 was used as a measure index of compound selectivity.
as §1, with “HEK-293” for “MOLT-4”, “DMEM” for “RPMI-1640”, “performed” for “performed by”
Compounds were diluted in a 5-fold gradient with 100% DMSO for a total of 9 concentrations. 2 W for each concentration was added to a 48-μl reaction buffer (20 mM Tris, pH 8.0, 0.5 mM EDTA) and mixed well as 4* compound (final concentrations: 100000, 20000, 4000, 800, 160, 32, 6.4, 1.28, and 0 nM) for later use. A reaction buffer was used to prepare 4*HEK-293 cell lysate at a final concentration of 25 ng/μl and 2*Ac-WLA-AMC at a final concentration of 20 μM. 5 W of 4* compound was added to a 384-well plate (OptiPlate-384, purchased from PerkinElmer), added with 5 W of 4*HEK-293 cell lysate, centrifuged, and reacted in an incubator at 23° C. for 1 hour. 10 W of 2* Ac-WLA-AMC was added and the reaction was started by centrifugation at 23° C. in the dark for 2 hours. After completion of the reaction, the signal value (excitation wavelength 345 nm/emission wavelength 445 nm) was read on the CLARIO star^Plus (purchased from BMG LRBTECH). Enzyme activity was determined at 9 concentrations for each compound, and data were processed using the GraphPad Prism software to calculate the half inhibitory concentration of the compound on D5, i.e. the IC50 value.

LMP7 [2] = target: T1, LMP7; test: Cytological inhibitory activity on LMP7 in MOLT-4 cells; assay type: cell-based; conditions: incubation for 2 hours with compound, read-out: Cytological activity data LMP7 Activity (MOLT-4Cell)
Procedure: MOLT-4 are human acute lymphoblastic leukemia cells and have been identified as cells with high expression of LMP7. In this experiment, the compounds were pre-incubated with MOLT-4, and Ac-ANW-AMC (BonstonBiochem, Cat #S-320) was used as the substrate of LMP7 to establish the detection method for the enzymatic activity of LMP7 in cells and detect the compound inhibitory activity (half inhibitory concentration, IC50).
Cells were plated in a 24-well plate (Corning) at a concentration of 1.5×10^5/ml per well. The next day compounds were prepared and diluted in a 5-fold gradient from 2 mM in 100% DMSO for a total of 8 concentrations. 2 μl for each concentration of the compound was added to a 1-ml cell culture medium, supplemented with 1 ml of RPMI-1640 only (final FBS concentration 5%, v/v). The compounds were mixed with the cells. After incubation for 2 hours in the incubator, the cells were centrifuged at 2000 rpm for 8 minutes to discard the supernatant. The cells were washed once with 2 ml PBS (Solarbio), and centrifuged again to discard the supernatant. The cells were resuspended in 100 μl of lysis buffer (20 mM Tris, pH 8.0, 5 mM EDTA, plus Protease inhibitor (1: 100) and Phosphatase Inhibitor (1:100) when used) and left in a 4° C. refrigerator for 45 minutes.
After 2 min. of centrifuge at 2000 rpm, the lysate was transferred from the 24-well plate to a 96-well plate, and centrifuged at 2000 rpm, 4° C., for 15 min. The supernatant was the lysate. Protein quantification was performed using the BCA method (Thermo, #23225). A 2* lysate was prepared with the reaction buffer (20 mM Tris, pH 8.0, 0.5 mM EDTA) at a final concentration of 20 ng/μl. 2* Ac-ANW-AMC was prepared with the reaction buffer at a final concentration of 100 μM. 10 µl of 2* lysate was added to a 384-well plate (OptiPlate-384, purchased from PerkinElmer), and added with 10 W of 2* Ac-ANW-AMC. The reaction was started by centrifugation at 23° C. in the dark for 1 hour. After completion of the reaction, the signal value (excitation wavelength 345 nm/emission wavelength 445 nm) was read on the CLARIO starPlus (purchased from BMG LRBTECH). Enzyme activity was determined at 8 concentrations for each compound, and data were processed using the GraphPad Prism software to calculate the half inhibitory concentration of the compound on LMP7 hydrolase in MOLT-4 cells, i.e. the IC50 value.

pIC50 (LMP7 [1])	pIC50 (β5)	pIC50 (LMP7 [2])	Compound
8.12	6.81	8.23	O=C(N[C@@H](Cc1coc2ccccc12)B(O)O)C(=O)N[C@@H]1C[C@H]2CC[C@@H]1O2 [Ex. 1, ((R)-1-(2-(((1S,2R,4R)-7-oxabicyclo[2.2.1]heptan-2-yl)amino)-2-oxoacetamido)-2-(benzofuran-3-yl)ethyl)boronic acid]
7.57			CNC(=O)C(=O)N[C@@H](Cc1coc2ccccc12)B(O)O [Ex. 2, (R)-(2-(benzofuran-3-yl)-1-(2-(methylamino)-2-oxoacetamido)ethyl)boronic acid]
7.89	6.29		CON(C)C(=O)C(=O)N[C@@H](Cc1coc2ccccc12)B(O)O [Ex. 3, (R)-(2-(benzofuran-3-yl)-1-(2-(methoxy(methyl)amino)-2-oxoacetamido)ethyl) boronic acid]
7.65			CCN(CC)C(=O)C(=O)N[C@@H](Cc1coc2ccccc12)B(O)O [Ex. 4, (R)-(2-(benzofuran-3-yl)-1-(2-(diethylamino)-2-oxoacetamido)ethyl)boronic acid]
7.55			CN(C)C(=O)C(=O)N[C@@H](Cc1coc2ccccc12)B(O)O [Ex. 6, (R)-(2-(benzofuran-3-yl)-1-(2-(dimethylamino)-2-oxoacetamido)ethyl)boronic acid]
8.11	6.91		O=C(N[C@H]1CCOC1)C(=O)N[C@@H](Cc1coc2ccccc12)B(O)O [Ex. 7, ((R)-2-(benzofuran-3-yl)-1-(2-oxo-2(((S)-tetrahydrofuran-3-yl)amino)acetamido)ethyl) boronic acid]
7.61			C[C@@H](NC(=O)C(=O)N[C@@H](Cc1coc2ccccc12)B(O)O)c1ccccn1 [Ex. 8, ((R)-2-(benzofuran-3-yl)-1-(2-oxo-2-(((R)-1-(pyridin-2-yl)ethyl)amino)acetamido)ethyl)boronic acid]
8.14	6.91		O=C(NC1CCOCC1)C(=O)N[C@@H](Cc1coc2ccccc12)B(O)O [Ex. 11, (R)-(2-(benzofuran-3-yl)-1-(2-oxo-2-((tetrahydro-2H-pyran-4-yl)amino)acetamido)ethyl)boronic acid]
8.50	7.23	8.39	O=C(Nc1nccs1)C(=O)N[C@@H](Cc1coc2ccccc12)B(O)O [Ex. 13, (R)-(2-(benzofuran-3-yl)-1-(2-oxo-2-(thiazol-2-ylamino)acetamido)ethyl) boronic acid]
7.48	7.23		O=C1CC[C@H](N2C(=O)c3ccc(N4CCN(CC5CCN(C(=O)C(=O)N[C@@H](Cc6coc7ccccc67)B(O)O)CC5)CC4)cc3C2=O)C(=O)N1 [Ex. 16, ((R)-2-(benzofuran-3-yl)-1-(2-(4-((4-(2-((S)-2,6-dioxopiperidin-3-yl)-1,3-dioxoisoindolin-5-yl)piperazin-1-yl)methyl)piperidin-1-yl)-2-oxoacetamido)ethyl)boronic acid]
8.59	7.52	9.10	CC1(C)[C@@H]2C[C@H]3OB([C@H](Cc4coc5ccccc45)NC(=O)C(=O)Nc4cnccn4)O[C@@]3(C)[C@H]1C2 [Ex. 17, (R)-(2-(benzofuran-3-yl)-1-(2-oxo-2-(pyrazin-2-ylamino)acetamido)ethyl) boronic acid (1S,2S,3R,5S)-(+)-pinane-2,3-diol ester]
8.62	7.47	8.90	O=C(O)CC1(CC(=O)O)OB([C@H](Cc2coc3ccccc23)NC(=O)C(=O)Nc2cnccn2)OC1=O [Ex. 18, (R)-2,2′-(2-(2-(benzofuran-3-yl)-1-(2-oxo-2-(pyrazin-2-ylamino)acetamido)ethyl)-5-oxo-1,3,2-dioxaborolane-4,4-diyl)diacetic acid]
8.95	7.91	9.16	CC1(C)OB([C@H](Cc2coc3ccccc23)NC(=O)C(=O)Nc2cnccn2)OC1(C)C [Ex. 19, N-((1R)-2-(1-benzofuran-3-yl)-1-(tetramethyl-1,3,2-dioxaborolan-2-yl)ethyl)-N-(pyrazin-2-yl)oxalamide]
